Tests used:
[1] = test system: splenic T cells of NOD mice; test: T cell proliferation: immunogenicity and spontaneous recall responses to candidate NTTA peptides (Example 4); format: cell-based; settings: peptide used as the immunizant; FIG. 4
Experimental: T-cell proliferation assays. Female NOD mice were injected i.p. at 8 weeks of age with 100 μg antigen, or control β-galactosidase, in 100 μl of 50% IFA. The mice were reinjected 2 weeks later. At 12 weeks of age, splenic T-cells were tested for proliferative responses to GAD65, hsp277, β-galactosidase and the HEL peptide, as previously described.
Transgenic animal models have shown that neoantigens which are expressed at low levels in peripheral tissues often have little impact on T cell education and elicit strong immune responses after immunization (4-8). Identifying NTTAs that were specifically expressed in the β cells at low levels was therefore preferred. The DNA sequence banks were screened for cDNA sequences isolated from mouse β cell subtraction libraries. Mouse cDNA sequences were selected from both known and unknown β cell cDNAs and from both β-cell specific and ubiquitous antigens, some of which appeared to be expressed only at low levels specifically in β cells. Other cDNAs that were expressed at higher levels in the β cells, or in other tissues were selected by Northern analysis for comparison purposes. From the open reading frames of the candidate cDNAs we synthesized a dozen peptides which contained a consensus NOD class II MHC binding motif (54, 55). We identified 4 peptides (sequences provided above) from 3 different mouse B cell proteins that were immunogenic in NOD mice (FIG. 4).
The remaining peptides tested were peptide 1, a 15mer from calbindin having the sequence EEFMKTWRKYDTDHS; • peptide 3, also a 15mer from calbindin having the sequence LKDLCEKNKQELDIN; • peptide 5, a 15mer from clone 38 in turn derived from a beta cell specific cDNA library (Neophytou, P. et al Diabetes, 45:127, 1996) having the sequence ILKMDHHCPWVNNCV; and • peptide 8 from islet amyloid polypeptide having the sequence GKRNAAGDPNRESLDFL.
In addition, using a set of overlapping GAD peptides, two GAD peptides have been identified which are immunogenic in NOD mice (GADp18 and GADp27; sequences provided under ANTIGENS, above) but which are ignored by their spontaneous autoimmune responses (data not shown). […] These conclusions can be used to advantage for the development of human NTTAs as immunotherapeutics for autoimmune disease, and other abnormal inflammatory immune responses.

[2] = test system: splenic T cells of NOD mice; test: as above; format: cell-based; settings: at any stage of NOD mouse development, no immunization
female NOD mice = test: IDDM incidence in NOD mice treated at six weeks (Example 6); format: in vivo; settings: 100 μg ip in IFA at six weeks, boosted once 10 days later; FIGS. 6 and 7
Experimental: IDDM incidence. At specified times, groups of 10 female NOD mice were injected i.p. with 50 μg antigen or control β-galactosidase in 100 μl of 50% IFA. Another control group received 100 μl of 50% IFA alone. Because there may be a requirement for continual antigen presentation, the mice were reinjected every 6 weeks until 40 weeks of age. Urine glucose levels were monitored weekly for diabetes by Tes-tape (Lilly, Indianapolis, Ind.). After we observed abnormal glucose in the urine, blood glucose levels were monitored twice weekly. A recording of two consecutive blood glucose levels of greater than 13 mmol/l was considered as IDDM onset.
Groups of six weeks old female NOD mice were treated with either the control MSA (MSA 560-574) peptide, or a peptide containing a βCAA target determinant (GADp35, GADp34, HSP 277 or insulin B-chain), or a NTTA peptide #2, 4, 6 or 7 (in each case 100 μg ip in IFA)). The mice were boosted once 10 days later. All mouse groups were injected concurrently and housed in the same SPF room. […] An average of 70% of the mice treated with a βCAA target determinant developed IDDM by 40 weeks in age. Two consecutive blood glucose levels of […] was considered disease onset. N=10 for each group.
An average of 40% of the NOD mice treated with different NTTAs developed IDDM by 40 weeks in age. […]

[3] = test system: diabetic NOD mice with transplanted syngeneic islets; test: Transplantation of syngeneic islets into diabetic NOD mice (Example 2); format: in vivo; settings: antigen i.p. in IFA to recipient diabetic NOD mice prior to transplantation; FIG. 1
Experimental: Transplantation of islets. Female NOD mice were monitored for the onset of IDDM, after which the mice were maintained on 1.0 to 1.5 units insulin (Humulin U, Lilly) per day. At the time of IDDM onset, mice were injected with either 100 μg of GAD65, hsp277, insulin B-chain or control β-galactosidase i.p. in 50% IFA. Ten days later, the mice were reinjected. Ten days after the second treatment, 3000 freshly isolated islets from newborn NOD mice were transplanted into the space beneath the kidney capsule, and Humulin administration was discontinued. The mice were reinjected every two weeks. Recurrence of diabetes is defined as two consecutive blood glucose levels of greater than 13 mmol/l.
Based on the ability of autoantigen treatment to inhibit disease in pre-diabetic NOD mice with (1) we tested whether this treatment could also protect transplanted syngeneic β cells from the established autoimmune responses in diabetic NOD mice. Islets were transplanted into diabetic NOD mice that had been treated with β-galactosidase. […] The results are shown in FIG. 1, wherein data are presented as time post-transplantation at which hyperglycemia recurred. These findings correlate with the extent to which each autoantigen was able to promote Th2 immunity in newly hyperglycemic animals (see Example 3, below).

[4] = test system: antigen-specific T cells within islet infiltrates; test: ELISPOT of single antigen-specific T cells from pancreatic islet infiltrates (Example 11); format: cell-based, NOD mice
Experimental: (§1) ELISPOT analysis. At a specified time, mice received a single i.p. injection of 100 μg β-galactosidase or GAD65 or other specified antigen in 50% IFA. Fourteen days later, splenic T-cells were isolated and the frequency of β-galactosidase and GAD65-specific T-cells secreting IL-4, IL-5 and IFN-γ was determined by using the ELISPOT technique as described (Forsthuber, T., et al., Science, 271:1728, 1996), with the exception that the treating antigen and β-galactosidase (100 μg/ml) were used as antigens, and 11B11 together with biotinylated BVD6-24G2 (PharMingen, San Diego, Calif.) was used for capture and detection of IL-4. The resulting spots were counted manually.
Monocytes were isolated from islets of 10-week old female NOD mice. 1000, 100 or 10 monocytes were mixed with 1 million irradiated splenic T cells and tested for IFNγ and IL-5 responses to B cell autoantigens, as well as control antigens, by ELISPOT.

NOD mice = settings: intraperitoneally in incomplete Freund's adjuvant early in the NOD mouse disease process (ref 1); cited from earlier work
[5] = test system: splenic T cells of treated NOD mice; test: ELISPOT of Th1/Th2 responses after neonatal autoantigen treatment (Example 8); format: cell-based; settings: treated neonatally 100 μg i.p. in IFA, tested at 4 weeks in age; FIG. 10
Experimental: as §1
The data are represented as the mean number of spot forming colonies per million splenic T cells above background. The variation within, each group was <15%. Experimental and control mice were tested simultaneously (in triplicate) in two separate experiments (n=5/group).

[6] = test system: irradiated young NOD mice receiving T cells from diabetic NOD mice; test: Adoptive transfer of IDDM (Example 5); format: in vivo; settings: cells from treated mice co-transferred with T cells from diabetic NOD mice
Experimental: Adoptive transfer of diabetes. At a specified time, NOD mice were injected i.p. with 100 μg GAD65 (or other specified antigen) or control β-galactosidase in 100 μl of 50% IFA and reinjected at 14 weeks of age. Five weeks later, single-cell suspensions of splenic mononuclear cells were prepared from each group, as well as from unmanipulated diabetic NOD mice. Ten million splenic mononuclear cells from the unmanipulated diabetic mice were mixed with an equal number of splenic mononuclear cells from GAD65 β-galactosidase-treated mice and injected intravenously into 5-week-old female NOD mice that had received 500 rad-γ-irradiation. Another control group received […] splenic mononuclear cells obtained only from unmanipulated diabetic mice.
Splenic T cells from NTTA peptide treated mice were co-transferred with T cells from diabetic NOD mice into irradiated young NOD mice. All of the mice which received cells from mice treated with a control immunogenic mouse serum albumin peptide (MSA 560-574) developed IDDM within 5 weeks. […] Thus, NTTAs are capable of inducing adoptively transferable regulatory responses which can down-regulate pathogenic T cells.

[7] = test system: T cell clones from immunized NOD mice; test: Cytokine secretion of NTTA- and GADp35-reactive T cell clones (Example 9); format: cell-based; settings: ELISPOT and antigen-stimulated culture supernatants
Experimental: NOD mice were immunized with a NTTA peptide or GADp35 in incomplete Freund's adjuvant (IFA). Two weeks later lymph node and splenic T cells were cultured with antigen, IL-2 and IL-4 together with irradiated NOD splenic cells and T cell clones were generated by limiting dilution. A NTTA 7 and a GADp35-reactive clone were characterized by ELISPOT and analysis of antigen-stimulated culture supernatants. Both clones secreted IL-4, and no IFN-γ in response to the corresponding antigen. Thus, these T cell clones appear to be Th2-type.

[8] = 100 islet monocytes mixed with 1 million irradiated splenic T cells
[9] = 1,000 islet monocytes mixed with 1 million irradiated splenic T cells, 10-week old female NOD mice

## EEFMKTWRKYDTDHS [peptide 1]
[1]
  immunogenicity in NOD mice (proliferative T cell response after immunization): did not contain determinants

## ELKNFLKDLLEKANKTVDDT (homo sapiens) [Peptide 2]
[2]
  spontaneous proliferative splenic T cell recall responses: did not detect
[1]
  immunogenicity in NOD mice (proliferative T cell response after immunization): immunogenic

## GKRNAAGDPNRESLDFL [peptide 8, from islet amyloid polypeptide]
[1]
  immunogenicity in NOD mice (proliferative T cell response after immunization): did not contain determinants

## ILKMDHHCPWVNNCV [peptide 5, 15mer from clone 38]
[1]
  immunogenicity in NOD mice (proliferative T cell response after immunization): did not contain determinants

## Insulin B-chain [reference compound]
Female NOD mice
  protection from disease / disease incidence: non-significant trend toward protection
[3]
  syngeneic islet graft survival (recurrence of hyperglycemia): lacked any protective effect
[4]; [8]
  IFNγ responses, number of T cells: 6
[4]; [9]
  IFNγ responses, number of T cells: 50
NOD mice
  protection from IDDM: highly protective
[5]
  Th2 and Th1 responses to the injected autoantigen: both Th2 and Th1 responses

## LIKPDRCHHCSVCDKC (homo sapiens) [Peptide 4]
[2]
  spontaneous proliferative splenic T cell recall responses: did not detect
[1]
  immunogenicity in NOD mice (proliferative T cell response after immunization): immunogenic

## LKDLCEKNKQELDIN [peptide 3]
[1]
  immunogenicity in NOD mice (proliferative T cell response after immunization): did not contain determinants

## MSA 560-574: control immunogenic mouse serum albumin peptide 560-574 (KPKATAEQLKTVMDD)
[6]
  time by which all recipient mice developed IDDM: ≤ 5 weeks

## NHLRATPVRSGSNPQ (homo sapiens) [Peptide 6]
[2]
  spontaneous proliferative splenic T cell recall responses: did not detect
[1]
  immunogenicity in NOD mice (proliferative T cell response after immunization): immunogenic

## PEVKEKGMAAVPRLIAFTSE (homo sapiens) [GADp18]
[2]
  spontaneous proliferative splenic T cell recall responses: ignored
[1]
  immunogenicity in NOD mice (proliferative T cell response after immunization): immunogenic

## PLQCSALLVREEGLMQSCNQ (homo sapiens) [GADp27]
[2]
  spontaneous proliferative splenic T cell recall responses: ignored
[1]
  immunogenicity in NOD mice (proliferative T cell response after immunization): immunogenic

## TQRLANFLVRSSNNL (homo sapiens) [Peptide 7]
[7]
  IFN-γ secretion of reactive T cell clone in response to the corresponding antigen: no
  IL-4 secretion of reactive T cell clone in response to the corresponding antigen: secreted
[2]
  spontaneous proliferative splenic T cell recall responses: did not detect
[1]
  immunogenicity in NOD mice (proliferative T cell response after immunization): immunogenic

B1: GAD: Mouse GAD65, glutamic acid decarboxylase, β cell autoantigen (protein, UniProt P48320 1-585, looked up)
Glutamate decarboxylase 2: MASPGSGFWSFGSEDGSADPENPGTARAWCQVAQKFTGGIGNKLCALLYGDSGKPAEGGGSVTSRAATGKVACTCDQKPCNCPKGDVNYAFLHATDLLPACDGERPTLAFLQDVMNILLQYVVKSFDRSTKVIDFHYPNELLQEYNWELADQPQNLEEILTHCQTTLKYAIKTGHPRYFNQLSTGLDMVGLAADWLTSTANTNMFTYEIAPVFVLLEYVTLKKMREIIGWPGGSGDGIFSPGGAISNMYAMLIARYKMFPEVKEKGMAAVPRLIAFTSEHSHFSLKKGAAALGIGTDSVILIKCDERGKMIPSDLERRILEVKQKGFVPFLVSATAGTTVYGAFDPLLAVADICKKYKIWMHVDAAWGGGLLMSRKHKWKLSGVERANSVTWNPHKMMGVPLQCSALLVREEGLMQSCNQMHASYLFQQDKHYDLSYDTGDKALQCGRHVDVFKLWLMWRAKGTTGFEAHIDKCLELAEYLYTIIKNREGYEMVFDGKPQHTNVCFWFVPPSLRTLEDNEERMSRLSKVAPVIKARMMEYGTTMVSYQPLGDKVNFFRMVISNPAATHQDIDFLIEEIERLGQDL
[3]
  syngeneic islet graft survival (recurrence of hyperglycemia): greatly extended syngeneic islet graft survival
[4]; [8]
  IFNγ responses, number of T cells: 15
[4]; [9]
  IFNγ responses, number of T cells: 123
NOD mice
  protection from IDDM: highly protective
[5]
  Th2 and Th1 responses to the injected autoantigen: both Th2 and Th1 responses

— patent publication US20050202032A1, “Use of neglected target tissue antigens in modulation of immune responses” (The Regents of the University of California, priority 1998, published 2005)
